Reference: PMC6134108, “Nystatin-like Pseudonocardia polyene B1, a novel disaccharide-containing antifungal heptaene antibiotic” (Scientific Reports, 2018)
≈ marks a conversion by molar mass, not a printed value. Read-outs that look alike come from different tables or passages of the source.

Key:
C. albicans SC5314 [1] = assay: In vivo efficacy, candidiasis-infected mouse model (survival); design: species or system Candida albicans; conditions: ICR mice infected with C. albicans SC5314; low dose 0.1 mg/kg
Excerpt: The systemic infection animal model was established using 4-week-old male ICR mice. Five C. albicans strains, consisting of two standard (C. albicans SC5314 and KCTC7965) and three clinical (C. albicans SL23, SL28, and SL38) strains were intravenously injected into the lateral tail vein of the various mouse groups. The mice were daily monitored for signs and mortality, and then they were euthanized. Subsequently, the target pathogenic C. albicans strain and optimal concentration for systemic infection for C. albicans were determined. A clinical isolate of C. albicans (SC5314) was grown and subcultured at 35 °C on Sabouraud dextrose agar (SDA) before infection. Candidiasis was induced by injecting 5 × 10^5 CFU/mouse via the tail vein of six 4-week-old ICR male mice. Each animal in the treatment group was administered a subcutaneous injection of reconstituted polyene macrolides 4 h after the infection. The drug efficacy was investigated by determining the survival rates of the mice.

in vivo [2] = conditions: male, SD, rat, iv, 1 mg/kg
horse blood cells = format: cell-based
Protocol: (§1) For the minimum inhibitory concentration (MIC) assay, strains for testing were grown on YPD agar for 24 hours, and subcultured to YPD broth medium. Whole strains were incubated for 18 hours at 35 °C by shaking incubator. Grown organisms were diluted with fresh RPMI 1640 medium to appropriate concentration, 5 × 10^4 CFU/ml. Cultures were inoculated to 96-well plates containing antifungal medium. All compounds were dissolved using Dimethyl Sulfoxide (DMSO) and diluted broth media. Fungal diluted solution and antifungal medium were mixed at 1:1 ratio so total 200 ul mixed medium was made. Whole experiment plates were incubated for 24 hours at 37 °C. […] The MICs were calculated in duplicate using the Clinical and Laboratory Standards Institute M27-A3 microbroth methodology. Hemolysis experiments and the 3-(4,5-dimethylthiazol-2-yl)-5-(3-carboxymethoxyphenyl)-2-(4-sulfophenyl)-2H-tetrazolium (MTS) cell proliferation colorimetric assay were performed following known procedures[12],[27],[29].

[3] = test system: Candida albicans KCTC7965; assay: MIC assay (CLSI M27-A3 microbroth); format: cell-based
Protocol: as §1

C. albicans SC5314 [4] = assay: MIC assay (CLSI M27-A3 microbroth); format: cell-based; conditions: Candida albicans
Protocol: as §1

C. albicans SL28 = assay: MIC assay (CLSI M27-A3 microbroth); format: cell-based; conditions: Candida albicans
Protocol: as §1

C. albicans SL38 = assay: MIC assay (CLSI M27-A3 microbroth); format: cell-based; conditions: Candida albicans
Protocol: as §1

[5] = Single intravenous dose acute toxicity; format: in vivo, mice; conditions: both sexes, ICR, mouse, in vivo; mice, single intravenous administration; read-out: LD50, median lethal dose (dose causing 50% mortality)
Protocol: All in vivo mouse toxicity studies were conducted according to Testing Guidelines for Safety Evaluation of Drugs[32] and the Organisation for Economic Co-operation and Development (OECD) Guideline[33]. Male and female ICR mice were used 7 weeks old for the toxicity test. […] The single doses were 1, 2.5, and 5 mg per kg body weight.

[6] = Microsomal (metabolic) stability; format: in vitro ADME; conditions: human liver microsomes 1.0 mg/ml; for half-life at 1 µM / microsomal CLint at 1 µM / remaining at 80 min, 1 µM: pH 7.4; for remaining at 80 min, 1 µM: 80-min incubation
Protocol: A metabolic stability experiment was conducted to calculate the rate of disappearance of polyene macrolides following in vitro incubation with human microsomes. Working solutions of polyene macrolides were prepared from a 10 mM stock solution in dimethyl sulfoxide (DMSO) diluted to a final concentration of 1 µM in 0.1 M potassium phosphate buffer (pH 7.4). Each incubation mixture included 1 mg/mL human microsomal protein (BD Gentest^TM, Franklin Lakes, NJ, USA) and 1 mM NADPH. The reactions were terminated at 0, 15, 45, and 80 min. The reaction mixtures were vigorously vortexed and then analyzed using the API2000 LC-MS/MS) system (Applied Biosystems, USA) using an Xterra MS C18 (3.5-µm, 2.1 × 50 mm, Waters).

in vivo [7] = conditions: mouse, 1 mg/kg
Excerpt: Supplement 41598_2018_31801_MOESM1_ESM.docx, table 4: Table S4.

[8] = 7-day repeated intravenous dose toxicity; format: in vivo, mice; conditions: both sexes, ICR, mouse, in vivo; mice, 7-day repeated intravenous doses; read-out: MTD, maximal tolerated dose
Protocol: All in vivo mouse toxicity studies were conducted according to Testing Guidelines for Safety Evaluation of Drugs[32] and the Organisation for Economic Co-operation and Development (OECD) Guideline[33]. Male and female ICR mice were used 7 weeks old for the toxicity test. […]

[9] = rats, oral administration
[10] = cited from earlier work
[11] = design: method as in PMID 22382166; conditions: cited from earlier work
[12] = design: method as in PMID 22382166; conditions: cited from earlier work; remark: listed apart in the source

**Q.** For C[C@@H]1[C@H](O)[C@@H](C)/C=C/C=C/CC/C=C/C=C/C=C/C=C/[C@H](O[C@@H]2O[C@H](C)[C@@H](O)[C@H](N)[C@@H]2O)C[C@@H]2O[C@](O)(C[C@@H](O)[C@H](O)CC[C@@H](O)C[C@@H](O)C[C@@H](O)CC(=O)O[C@H]1C)C[C@H](O)[C@H]2C(=O)O [Nystatin A1, nystatin A1], which survival rate (C. albicans SC5314 [1]) is on record?
**A.** Its survival rate is “gradually decreased”.

**Q.** And the MRT inf (in vivo [2]; in vivo)?
**A.** Its MRT inf is 48 min.

**Q.** What about the AUC(0-inf) (in vivo [2]; plasma) of the same compound?
**A.** Its AUC(0-inf) is 5300 ng·h/mL.

**Q.** And the AUC(0-t) (in vivo [2]; plasma)?
**A.** Its AUC(0-t) is 5120 ng·h/mL.

**Q.** What about the Vd (in vivo [2]; plasma) of the same compound?
**A.** The Vd was 0.2 L/kg.

**Q.** And the clearance (in vivo [2]; plasma)?
**A.** The clearance was 3.33 mL/min/kg.

**Q.** And the half-life (in vivo [2]; plasma)?
**A.** Its half-life is 36 min.

**Q.** And the “Hemolytic activity (MHC, minimum hemolytic concentration)” value (horse blood cells; horse)?
**A.** Its value is 66.17 ± 0.90 µg/mL.

**Q.** And the MIC ([3]; Candida albicans KCTC7965, no visible growth, read-out: Antifungal activity (MIC))?
**A.** The MIC was 4 µg/mL (≈ 4.32 µM).

**Q.** What about the MIC (C. albicans SC5314 [4]; C. albicans SC5314, no visible growth, read-out: Antifungal activity (MIC)) of the same compound?
**A.** Its MIC is 4 µg/mL (≈ 4.32 µM).

**Q.** And the MIC (C. albicans SL28; C. albicans SL28, no visible growth, read-out: Antifungal activity (MIC))?
**A.** Its MIC is 4 µg/mL (≈ 4.32 µM).

**Q.** And the MIC (C. albicans SL38; C. albicans SL38, no visible growth, read-out: Antifungal activity (MIC))?
**A.** Its MIC is 4 µg/mL (≈ 4.32 µM).

**Q.** What about the LD50 at 7 days [5] of the same compound?
**A.** Its LD50 at 7 days is 5.37 mg/kg.

**Q.** And the Clearance class [6]?
**A.** The Clearance class was “Low”.

**Q.** What about the half-life at 1 µM [6] of the same compound?
**A.** The half-life at 1 µM was > 80 min.

**Q.** What about the microsomal CLint at 1 µM [6] of the same compound?
**A.** The microsomal CLint at 1 µM was < 8600 µL/min/mg.

**Q.** And the remaining at 80 min, 1 µM [6]?
**A.** Its remaining at 80 min, 1 µM is 115%.

**Q.** What about the AUC(0-inf) (in vivo [7]) of the same compound?
**A.** The AUC(0-inf) was 7150 ng·h/mL.

**Q.** What about the AUC(0-t) (in vivo [7]) of the same compound?
**A.** The AUC(0-t) was 7120 ng·h/mL.

**Q.** What about the MRT inf (in vivo [7]) of the same compound?
**A.** Its MRT inf is 0.9 h.

**Q.** And the Vd (in vivo [7])?
**A.** The Vd was 0.1 L/kg.

**Q.** And the clearance (in vivo [7])?
**A.** Its clearance is 1.67 mL/min/kg.

**Q.** And the half-life (in vivo [7])?
**A.** The half-life was 36 min.

**Q.** What about the MTD at 7 days [8] of the same compound?
**A.** Its MTD at 7 days is 2 to 4 mg/kg.

**Q.** Which AUC(0-inf) (in vivo [2]; plasma) does the source give for CC(=O)NC1C(OC2C(C)OC(OC3C=CC=CC=CC=CCCC=CC=CC(C)C(O)C(C)C(C)OC(=O)CC(O)CC(O)CC(O)CCC(O)C(O)CC4(O)CC(O)C(C(=O)O)C(C3)O4)C(O)C2N)OC(CO)C(O)C1O (stereo not drawn) [NPP A1, nystatin-like Pseudonocardia polyene (NPP) A1] here?
**A.** The AUC(0-inf) was 4470 ng·h/mL.

**Q.** And the AUC(0-t) (in vivo [2]; plasma)?
**A.** The AUC(0-t) was 4390 ng·h/mL.

**Q.** What about the MRT inf (in vivo [2]; plasma) of the same compound?
**A.** The MRT inf was 42 min.

**Q.** What about the Vd (in vivo [2]; plasma) of the same compound?
**A.** The Vd was 0.1 L/kg.

**Q.** And the clearance (in vivo [2]; plasma)?
**A.** The clearance was 3.33 mL/min/kg.

**Q.** And the half-life (in vivo [2]; plasma)?
**A.** The half-life was 36 min.

**Q.** And the “Hemolytic activity (MHC, minimum hemolytic concentration)” value (horse blood cells; 90% hemolysis against horse blood cells, ± percentage standard deviation)?
**A.** The value was 459.35 ± 32.5 µg/mL.

**Q.** And the MIC ([3]; Candida albicans, KCTC7965, read-out: Antifungal activity (MIC))?
**A.** The MIC was 16 µg/mL (≈ 14.2 µM).

**Q.** What about the MIC (C. albicans SC5314 [4]; SC5314, read-out: Antifungal activity (MIC)) of the same compound?
**A.** Its MIC is 16 µg/mL (≈ 14.2 µM).

**Q.** And the MIC (C. albicans SL28; SL28, read-out: Antifungal activity (MIC))?
**A.** The MIC was 16 µg/mL (≈ 14.2 µM).

**Q.** And the MIC (C. albicans SL38; SL38, read-out: Antifungal activity (MIC))?
**A.** Its MIC is 16 µg/mL (≈ 14.2 µM).

**Q.** What about the “detection in the plasma following oral administration” value [9] of the same compound?
**A.** The value was “not detected”.

**Q.** What about the “hemolytic activity, fold reduced versus nystatin A1” value [10] of the same compound?
**A.** The value was 10 fold.

**Q.** And the LD50 at 7 days [5]?
**A.** The LD50 at 7 days was 16.1 mg/kg.

**Q.** And the Clearance class [6]?
**A.** Its Clearance class is “Low”.

**Q.** And the half-life at 1 µM [6]?
**A.** Its half-life at 1 µM is > 80 min.

**Q.** What about the microsomal CLint at 1 µM [6] of the same compound?
**A.** The microsomal CLint at 1 µM was < 8600 µL/min/mg.

**Q.** And the remaining at 80 min, 1 µM [6]?
**A.** The remaining at 80 min, 1 µM was 60.9%.

**Q.** And the AUC(0-inf) (in vivo [7]; read-out: AUC0-inf)?
**A.** Its AUC(0-inf) is 12700 ng·h/mL.

**Q.** What about the AUC(0-t) (in vivo [7]; read-out: AUC0-t) of the same compound?
**A.** Its AUC(0-t) is 12400 ng·h/mL.

**Q.** What about the clearance (in vivo [7]; read-out: CL (converted)) of the same compound?
**A.** Its clearance is 1.67 mL/min/kg.

**Q.** And the MRT inf (in vivo [7]; read-out: MRTinf)?
**A.** Its MRT inf is 1.1 h.

**Q.** And the Vd (in vivo [7]; read-out: Vss)?
**A.** Its Vd is 0.1 L/kg.

**Q.** And the half-life (in vivo [7]; read-out: t1/2 (converted))?
**A.** Its half-life is 60 min.

**Q.** What about the “antifungal activity, lower than nystatin A1” value [11] of the same compound?
**A.** Its value is “approximately 50%”.

**Q.** And the MTD at 7 days [8]?
**A.** The MTD at 7 days was 5 to 10 mg/kg.

**Q.** And the “water-solubility, fold higher than nystatin A1” value [12]?
**A.** Its value is 300 fold.
